Series [1] in a line: Aqueous solubility observed on testing. Type of series: physicochemical. To be noted: stated on testing.
For series [2], the target named is T1, PNCK Nano-luciferase fusion (Homo sapiens, UniProt Q6P2M8).
T1 construct: host or cells: HEK293
As to the kind of experiment: NanoBRET Target Engagement Intracellular Kinase Assay, cell-based PNCK binding screen and dose response in HEK293 cells. Particulars: for inhibition at 1 µM: compound 1uM, read-out: Avg. Normalized % Inhibition, 1uM, Nanobret; for inhibition at 1 µM / inhibition at 10 µM / IC50: HEK293; for inhibition at 1 µM / inhibition at 10 µM: K10 tracer 1uM, normalized to staurosporine and DMSO; for inhibition at 10 µM: compound 10uM, read-out: Avg. Normalized % Inhibition, 10uM, Nanobret; for IC50: 8-point concentration-response.

The target in series [3] is T1, PNCK Nano-luciferase fusion. The description is as above.

Several values for one entry are separate records, joined by “and”; a condition that tells them apart may be missing. Equal values may be shown once.

This note sets out measurements from PMC10249896, “AI-Assisted chemical probe discovery for the understudied Calcium-Calmodulin Dependent Kinase, PNCK” (PLOS Computational Biology, 2023).

T1 sequence (Q6P2M8 whole entry, the tested form may be a part): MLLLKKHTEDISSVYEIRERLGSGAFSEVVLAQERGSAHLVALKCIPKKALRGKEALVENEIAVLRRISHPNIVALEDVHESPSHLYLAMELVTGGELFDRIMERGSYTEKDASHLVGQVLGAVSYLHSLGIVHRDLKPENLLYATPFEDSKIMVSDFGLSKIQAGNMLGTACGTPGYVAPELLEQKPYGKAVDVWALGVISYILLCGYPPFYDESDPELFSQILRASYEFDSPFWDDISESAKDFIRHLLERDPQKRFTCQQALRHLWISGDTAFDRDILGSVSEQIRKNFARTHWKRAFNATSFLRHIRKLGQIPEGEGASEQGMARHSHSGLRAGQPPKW

As for `Cc1ccc(C)c(OCc2nc(-c3cccnn3)no2)c1C` [UM_245], the aqueous solubility entry in series [1] is “poor aqueous solubility”.

What is called inhibition is the share of the control response that was lost under treatment. Regarding `Oc1c(/C=N/c2ccc(Br)cn2)sc2ccccc12` [UM_234], the aqueous solubility result in series [1] is “poor aqueous solubility”. Further, in series [2], the inhibition at 1 µM was determined as 5.92% and the inhibition at 10 µM stood at 17.1%.

By IC50 is commonly meant the point on the concentration scale where inhibition reaches its midpoint. Turning to `CC1CCc2c(sc(NC(=O)CSc3ncc(-c4ccc(F)cc4)[nH]3)c2C(N)=O)C1` (stereo not drawn) [UM_252], the “Dose-Response Curve Data (NanoBRET signal, replicates)” value (“Dose-Response Curve Data” for short) in series [3] (Concentration 1.00E-05 M) was 5.51 and 5.44 and 5.21 and 5.32 and 4.78; in series [3] (Concentration 1.56E-07 M) it was 6.58 and 6.82 and 6.54 and 7.24 and 6.53; in series [3] (Concentration 3.13E-07 M), 6.79 and 6.18 and 7.47 and 6.16 and 7.19; in series [2] (Concentration 1.25E-06 M) it was 5.69 and 4.76 and 5.57 and 5.29 and 6.48; in series [2] (Concentration 2.00E-05 M), 4.90 and 5.31 and 5.12 and 5.26 and 5.44; in series [2] (Concentration 2.50E-06 M), 5.05 and 5.03 and 4.81 and 5.42 and 6.45. In addition, the “Dose-Response Curve Data” value in series [2] (Concentration 5.00E-06 M) is 4.80 and 4.70 and 5.14 and 6.28 and 5.58; in series [2] (Concentration 6.25E-07 M) it was 5.77 and 5.39 and 5.91 and 7.06 and 6.32. The IC50 in series [2] amounted to 1.09 µM. Further, in series [2] (cell-based screen / comparison with parent hit), the “NanoBRET binding, result in words” value was “improving from the IC50 of UM_228 by one order of magnitude”. Besides, in series [2], the inhibition at 1 µM worked out at 49.9%. Moreover, in series [2], the inhibition at 10 µM turned out to be 79.1%.

In the case of `COC(=O)c1cnc(Sc2nnc(-c3cccc4ccccc34)o2)cn1` [UM_254], the “Dose-Response Curve Data” value in series [3] (Concentration 1.00E-05 M) was 5.13 and 5.39 and 6.19 and 4.97; in series [3] (Concentration 1.56E-07 M), 8.00 and 8.01 and 8.11 and 8.38; in series [3] (Concentration 3.13E-07 M), 8.00 and 8.43 and 7.99 and 7.89; in series [2] (Concentration 1.25E-06 M), 7.15 and 8.63 and 7.69 and 7.36; in series [2] (Concentration 2.00E-05 M) it was 4.80 and 4.63 and 5.32 and 4.99; in series [2] (Concentration 2.50E-06 M), 7.32 and 7.44 and 7.90 and 7.31. Moreover, the “Dose-Response Curve Data” value was 6.60 and 7.13 and 7.18 and 7.54 in series [2] (Concentration 5.00E-06 M); 7.54 and 7.48 and 8.39 and 8.00 in series [2] (Concentration 6.25E-07 M). Besides, the IC50 in series [2] amounted to 2.68 µM. Besides, the inhibition at 1 µM in series [2] amounted to 16.1%. The inhibition at 10 µM in series [2] was 68.2%.
